The values that follow come from PubChem BioAssay (NCI).

Test systems include U251 CNS; SN12C renal; MCF7 breast; HOP-62 NSCLC; MOLT-4 leukemia; HT29 colon; RPMI-8226 leukemia; NCI-H460 lung; A498 renal; SF-539 CNS.
Common to all, as to assay: DTP human tumour cell line panel, 48 h

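Interpolation was linear, between the two tested concentrations surrounding the appropriate level; five concentrations were tested over 48 hours in 96-well plates. The concentration for 50% growth inhibition is given as GI50. Definition used: TGI = concentration required for complete inhibition of growth.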

In the case of `N#C/C(=C/N1CCN(C(=O)c2ccco2)C1=S)C(N)=O`, the GI50 (usually the concentration at which growth is held to half of that of the control) in the assay with U251 CNS was 11.5 µM; in the assay on SN12C renal, 12 µM; in the assay on MCF7 breast, 1.71 µM; in the assay with HOP-62 NSCLC, 25.6 µM; in the assay on MOLT-4 leukemia, 39.8 µM; with HT29 colon, 24.1 µM. The GI50 in the assay on RPMI-8226 leukemia is 12.4 µM; with NCI-H460 lung, 3.99 µM. Further, the TGI (in general, the concentration at which net growth stops) is 46.8 µM in the assay with U251 CNS; 32.2 µM in the assay with SN12C renal; 21 µM in the assay with MCF7 breast; 66.9 µM in the assay with HOP-62 NSCLC; over 100 µM in the assay with MOLT-4 leukemia; over 100 µM in the assay on HT29 colon. Also, the TGI with RPMI-8226 leukemia is over 100 µM; in the assay with NCI-H460 lung, 50.7 µM.
As to `CC1=C(C)C(=O)C(C(C)C2=C(C)C(=O)C(C)=C(C)C2=O)=C(C)C1=O`, the GI50 in the assay with U251 CNS is 21.7 µM; with SN12C renal, 56 µM; with MCF7 breast, 29 µM; with HOP-62 NSCLC it was over 100 µM; with A498 renal, 25.2 µM; in the assay with MOLT-4 leukemia it was 8.88 µM. The values for the GI50 in the assay with SF-539 CNS, in the assay on RPMI-8226 leukemia and with NCI-H460 lung were 23.7 µM, 7.09 µM and 26.7 µM, respectively. Further, the total growth inhibition concentration (TGI) in the assay with U251 CNS was over 100 µM; in the assay on SN12C renal, over 100 µM; in the assay on MCF7 breast, over 100 µM; in the assay on HOP-62 NSCLC it was over 100 µM; in the assay with A498 renal, over 100 µM; in the assay on MOLT-4 leukemia it was 27.6 µM. For the same compound, the TGI is over 100 µM in the assay on SF-539 CNS, 31.6 µM in the assay on RPMI-8226 leukemia and over 100 µM with NCI-H460 lung.
For the compound `CCOC(=O)C(=Cc1ccccc1Br)C(=O)OCC`, the TGI in the assay with SN12C renal is 15.6 µM; in the assay on MCF7 breast, over 100 µM; with HOP-62 NSCLC it was over 100 µM; with A498 renal, 5.07 µM; in the assay on MOLT-4 leukemia, 5.61 µM; with HT29 colon, 10.9 µM. The TGI was 8.32 µM in the assay on SF-539 CNS, over 100 µM in the assay with RPMI-8226 leukemia and over 100 µM with NCI-H460 lung.
Turning to `O=C(NC(=S)NS(=O)(=O)c1ccc(N2N=C3c4ccccc4CC3C2c2cccs2)cc1)c1ccccc1` (stereo not drawn), the GI50 is 20.1 µM in the assay with U251 CNS; 26 µM with SN12C renal; over 100 µM with MCF7 breast; 26.2 µM in the assay with MOLT-4 leukemia; 46 µM in the assay with HT29 colon; 27.9 µM with SF-539 CNS. Further, the GI50 in the assay on RPMI-8226 leukemia is 29.7 µM; in the assay on NCI-H460 lung it was over 100 µM. Moreover, the TGI is 82.3 µM in the assay with U251 CNS; 96.9 µM in the assay with SN12C renal; over 100 µM in the assay with MCF7 breast; 69.9 µM in the assay on MOLT-4 leukemia; over 100 µM in the assay on HT29 colon; 84.6 µM with SF-539 CNS. Moreover, the total growth inhibition concentration (TGI) in the assay on RPMI-8226 leukemia and in the assay with NCI-H460 lung was over 100 µM in each case.
Turning to `CCOC1NC(=O)Oc2ccccc21` (stereo not drawn), the concentration for total growth inhibition (TGI) in the assay with U251 CNS, in the assay on SN12C renal, with MCF7 breast, in the assay on HOP-62 NSCLC, with A498 renal and in the assay with MOLT-4 leukemia was over 100 µM each time. Besides, the total growth inhibition concentration (TGI) in the assay on HT29 colon, in the assay on SF-539 CNS and with NCI-H460 lung was over 100 µM throughout.
With `COc1ccc(Cc2ccccc2C(=O)O)c2ccccc12`, the TGI with U251 CNS was 89.3 µM; in the assay with SN12C renal it was over 100 µM; with MCF7 breast it was over 100 µM; in the assay on HOP-62 NSCLC, over 100 µM; in the assay on A498 renal, 57.9 µM; in the assay on HT29 colon, over 100 µM. For the same compound, the TGI was over 100 µM with RPMI-8226 leukemia and 38.9 µM in the assay on NCI-H460 lung.
For `CC1=C(C(=O)Nc2ccc(F)c(Cl)c2)C(c2cccc(Cl)c2)NC(=O)N1` (stereo not drawn), the GI50 with U251 CNS is 16.5 µM; in the assay on SN12C renal, 16 µM; in the assay with MCF7 breast, 19.8 µM; in the assay with HOP-62 NSCLC it was 17.5 µM; with A498 renal, 1.39 µM; in the assay with HT29 colon, 14.8 µM. Further, the GI50 with SF-539 CNS is 19.6 µM; in the assay on RPMI-8226 leukemia it was 16.3 µM; in the assay with NCI-H460 lung it was 16.4 µM. Also, the TGI stood at 32.5 µM with U251 CNS; 32.1 µM in the assay with SN12C renal; 46 µM in the assay with MCF7 breast; 35 µM with HOP-62 NSCLC; 15.5 µM in the assay on A498 renal; 30.1 µM in the assay with HT29 colon. Besides, the figures for the TGI in the assay with SF-539 CNS, with RPMI-8226 leukemia and with NCI-H460 lung were 37.2 µM, 46.9 µM and 34 µM, respectively.
As for `Cn1c2ccccc2c2c3c(c4c5ccccc5n(CCCCCC#N)c4c21)C(=O)N(O)C3=O`, the GI50 is 0.33 µM in the assay on U251 CNS; 0.453 µM with SN12C renal; 0.299 µM with MCF7 breast; 0.42 µM with HOP-62 NSCLC; 1.21 µM in the assay on A498 renal; 1.65 µM in the assay on HT29 colon. For the same compound, the GI50 in the assay on SF-539 CNS is 0.295 µM; with RPMI-8226 leukemia it was 0.609 µM; in the assay with NCI-H460 lung it was 0.377 µM. The TGI was determined as 1.51 µM with U251 CNS; 20.9 µM in the assay with SN12C renal; 27.9 µM in the assay on MCF7 breast; 5.65 µM in the assay on HOP-62 NSCLC; 3.56 µM in the assay with A498 renal; 3.36 µM in the assay on HT29 colon. In addition, the TGI in the assay with SF-539 CNS came out at 1.1 µM; in the assay on RPMI-8226 leukemia it was 4.65 µM; with NCI-H460 lung it was 2.34 µM.
Consider `COc1ccc(C(=O)Nc2cccc(C3CC(=O)c4c(cc(OC)c(OC)c4OC)O3)c2)cc1` (stereo not drawn), for which the GI50 is 1.62 µM in the assay with SN12C renal; 0.466 µM in the assay with MCF7 breast; 1.72 µM with HOP-62 NSCLC; 2 µM with A498 renal; 1.02 µM in the assay with MOLT-4 leukemia; 3.38 µM with HT29 colon. The figures for the GI50 with SF-539 CNS, with RPMI-8226 leukemia and in the assay on NCI-H460 lung were 1.66 µM, 0.726 µM and 2.21 µM, respectively. Also, the total growth inhibition concentration (TGI) in the assay with SN12C renal was over 100 µM; with MCF7 breast it was 56.4 µM; in the assay on HOP-62 NSCLC, over 100 µM; in the assay with A498 renal it was 8.12 µM; in the assay with MOLT-4 leukemia, 5.18 µM; in the assay on HT29 colon it was 12.2 µM. The concentration for total growth inhibition (TGI) in the assay with SF-539 CNS worked out at 4.65 µM; in the assay on RPMI-8226 leukemia it was 3.51 µM; with NCI-H460 lung, 11.7 µM.
For the compound `Cc1c2c(nn1-c1ccc(S/N=C3\SCC(=O)CN3c3ccccc3)cc1)-c1ccccc1CC2`, the GI50 in the assay on U251 CNS was 21.1 µM; in the assay on SN12C renal, 17.8 µM; with MCF7 breast, 7.79 µM; in the assay on HOP-62 NSCLC it was 12.7 µM; with MOLT-4 leukemia it was 19.6 µM; with HT29 colon, 34.5 µM. In addition, the GI50 is 22.4 µM in the assay on SF-539 CNS, 7.85 µM in the assay on RPMI-8226 leukemia and 15.2 µM in the assay on NCI-H460 lung. Moreover, the total growth inhibition concentration (TGI) in the assay with U251 CNS was over 50 µM; with SN12C renal, over 50 µM; in the assay with MCF7 breast, 36.7 µM; in the assay with HOP-62 NSCLC, 47.7 µM; in the assay on MOLT-4 leukemia it was over 50 µM; with HT29 colon, over 50 µM. Also, the TGI in the assay with SF-539 CNS, with RPMI-8226 leukemia and with NCI-H460 lung was over 50 µM each time.
